US20100173332A1, “Method for the Fluorescent Detection of Nitroreductase Activity Using Nitro-Substituted Aromatic Compounds” (Auckland Uniservices Limited, priority 2006, published 2010)
One block for each molecule: values may come before it.

How the values were obtained:
Format in all cases: cell-based
[1] = system: Escherichia coli nfsB (NfsB) or human cytochrome P450 reductase (CYPOR); test: Multiplexed reporter detection with compounds 11 and 13 in MDA-231 WT, NfsB and CYPOR cells (fluorescence microscopy); conditions: fluorescent microscope images, MDA-231 WT/NfsB/CYPOR
Source text: Compounds 11 and 13 (as representative nitro-substituted aromatic compounds of the present invention) were utilized to exemplify the ability to detect individual cell populations. […] When the data were collated it was evident that the fluorescent output of each cell population could be identified with minimal interference from the other reductases-generated fluorescent molecules. […] To establish the single cell specificity of compounds 11 and 13 for detection of activities in a mixed (co-cultured) cell population, cells were examined by fluorescent microscopy following concurrent exposure to compounds 11 and 13. MDA-231 wild-type cells or cells expressing Escherichia coli nfsB and human cytochrome P450 reductase were mixed 1:1:1, seeded onto glass coverslips (15,000 cells/well in 0.1 mL αMEM+10% FCS+P/S) and allowed to attach overnight. Compound 11 and 13 were diluted into αMEM (from DMSO stock solutions) and 0.1 mL was added to achieve a final concentration of 10 μM and 100 μM respectively. Samples were incubated at 37° C. for 45 minutes, washed three times in PBS and images were acquired on a Nikon TE-2000 inverted fluorescence microscope. […] This illustrates that multiple independent outputs can be recorded from a single sample providing appropriate excitation and emission wavelengths are utilized. […]

[2] = biological target: T1, E. coli nitroreductase (nfsB) (Escherichia coli, UniProt P38489); test: Entrapment of fluorescent products within nitroreductase expressing HCT116 cells; conditions: washed; for cellular retention of fluorescence in nitroreductase expressing but not parental HCT116 cells: 10 μM for 1.5 hr, 6 hours post-exposure
T1 construct: expressed in transfected cells; host or cells: MDA231 (MDA-231) human breast cancer cell line, clonal derivative MDA231 NTR
T1 sequence (P38489 whole entry): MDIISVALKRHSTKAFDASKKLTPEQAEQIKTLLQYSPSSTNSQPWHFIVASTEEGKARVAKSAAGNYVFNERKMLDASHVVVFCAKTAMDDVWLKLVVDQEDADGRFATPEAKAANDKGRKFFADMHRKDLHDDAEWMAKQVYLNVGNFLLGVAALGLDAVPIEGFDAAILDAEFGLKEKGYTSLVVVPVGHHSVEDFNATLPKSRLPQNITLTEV
Procedure: The human colorectal cancer cell line (HCT116^WT) and a clonal derivative (HCT116^NTR) engineered to express the reporter gene E. coli nitroreductase (nfsB) under the control of a constitutive promoter were seeded onto glass coverslips at an equal density (50:50). Cells were equilibrated to 37° C., 5% CO2, and compound 1 and 13 was added to a final concentration of 100 μM for 1 hr. Cells were washed free of compound after 1 hour and fluorescence was monitored as a function of time (FIG. 8).
In further screening (FIG. 9), the human colorectal cancer cell line (HCT116^WT) and a clonal derivative (HCT116^NTR) engineered to express the reporter gene E. coli nitroreductase (nfsB) under the control of a constitutive promoter were seeded separately into a 96-well glass plate. Cells were equilibrated to 37° C., 5% CO2, and compounds were added to a final concentration of 10 μM for 1.5 hr. Cells were washed free of compound and fluorescence was monitored 6 hours post-exposure. […] The image has been rendered monochromatic for the purposes of publication quality.

[3] = biological target: T2, human cytochrome P450 reductase (CYPOR) (Homo sapiens, UniProt P16435); test: Multiplexed reporter detection with compounds 4 and 16 in MDA-231 cells expressing CYPOR
T2 construct: expressed in transfected cells; host or cells: MDA231 (MDA-231) human breast cancer cell line, clonal derivative MDA231 P450R
T2 sequence (P16435 1-677): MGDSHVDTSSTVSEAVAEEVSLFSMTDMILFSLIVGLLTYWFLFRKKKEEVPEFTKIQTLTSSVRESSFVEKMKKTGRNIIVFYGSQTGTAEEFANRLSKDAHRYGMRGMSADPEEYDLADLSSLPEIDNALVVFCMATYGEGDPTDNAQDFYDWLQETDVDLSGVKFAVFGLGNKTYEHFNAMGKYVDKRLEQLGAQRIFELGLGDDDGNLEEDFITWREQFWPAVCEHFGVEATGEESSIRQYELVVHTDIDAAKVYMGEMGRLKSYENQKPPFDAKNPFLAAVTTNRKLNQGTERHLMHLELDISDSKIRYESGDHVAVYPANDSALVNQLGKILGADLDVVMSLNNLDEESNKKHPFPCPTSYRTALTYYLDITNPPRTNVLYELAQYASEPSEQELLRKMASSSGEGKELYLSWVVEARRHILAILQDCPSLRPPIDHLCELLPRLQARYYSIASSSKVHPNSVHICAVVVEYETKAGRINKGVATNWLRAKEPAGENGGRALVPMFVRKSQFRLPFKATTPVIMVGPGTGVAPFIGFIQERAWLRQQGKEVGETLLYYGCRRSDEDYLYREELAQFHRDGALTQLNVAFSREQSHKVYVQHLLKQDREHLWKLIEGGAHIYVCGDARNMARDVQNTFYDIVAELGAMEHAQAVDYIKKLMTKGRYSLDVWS
Procedure: (§1) Compounds 4 and 16 (as representative nitro-substituted aromatic compounds of the present invention) were utilized to exemplify the ability to detect individual cell populations. […] 30,000 cells were seeded into a plastic 96-well plate in a volume of 0.1 mL. After 2 h attachment samples were incubated with either 200 μM 16 or 100 μM 4 by dilution of DMSO stock solutions into culture medium and addition of 0.1 mL directly into wells. Plates were incubated for 4 h before being read on a fluorescent platereader at Ex/Em 355/460 and 485/535. Values represent the fluorescence in the presence of cells—blank (fluorescence in the absence of cells). When the data were collated it was evident that the fluorescent output of each cell population could be identified with minimal interference from the other reductases-generated fluorescent molecules. […] To establish the single cell specificity of compounds 4 and 16 for detection of activities in a mixed (co-cultured) cell population, cells were examined by fluorescent microscopy following concurrent exposure to compounds 4 and 16. […] Samples were incubated at 37° C. for 45 minutes, washed three times in PBS and images were acquired on a Nikon TE-2000 inverted fluorescence microscope. […]

[4] = biological target: T3, Escherichia coli nfsB (NfsB) (Escherichia coli, UniProt P38489); test: Multiplexed reporter detection with compounds 4 and 16 in MDA-231 cells expressing nfsB; conditions: 100 μM, 4 h, platereader, MDA-231 WT/NfsB/CYPOR
T3 construct: expressed in transfected cells; host or cells: MDA231 (MDA-231) human breast cancer cell line, clonal derivative MDA231 NTR
T3 sequence (P38489 whole entry): as the sequence (P38489 whole entry) above
Procedure: as §1

Structure (SMILES): COC(=O)Cn1ccc(=O)c2cc([N+](=O)[O-])ccc21 [Compound 13, Methyl (6-nitro-4-oxo-1(4H)-quinolinyl)acetate]
- fluorescent output at Ex/Em 355/460 detecting nfsB and CYPOR enzyme activities [1]: gave fluorescent output
- cellular retention of fluorescence in nitroreductase expressing but not parental HCT116 cells [2]: possessing cellular retention properties
- retention of fluorescence in cells after wash ([2]; HCT116 WT:HCT116 NTR 50:50 co-culture, 100 μM for 1 hr, by 4 hours): still retained

- fluorescent output at Ex/Em 355/460 detecting human CYPOR activity ([3]; 200 μM, 4 h, platereader, MDA-231 WT/NfsB/CYPOR): gave fluorescent output
- fluorescent emission colour on co-registration image (DAPI filter set) ([3]; nfsB and CYPOR cells mixed 1:1, 300 μM, 45 minutes, microscopy): blue
Structure (SMILES): CN(C)CCCNc1ncnc2cccc([N+](=O)[O-])c12 [Compound 16, N^1,N^1-dimethyl-N^3-(5-nitro-4-quinazolinyl)-1,3-propanediamine]

Structure (SMILES): CN(C)CCNC(=O)c1cc([N+](=O)[O-])cc2c(=O)c3ccccc3[nH]c12 [Compound 4, N-[2-(Dimethylamino)ethyl]-2-nitro-9-oxo-9,10-dihydro-4-acridinecarboxamide]
- fluorescent output at Ex/Em 485/535 detecting Escherichia coli nfsB activity [4]: gave fluorescent output
- cellular retention of fluorescence in nitroreductase expressing but not parental HCT116 cells [2]: possessing cellular retention properties

Structure (SMILES): CN(C)CCCCN1C(=O)c2cccc3cc([N+](=O)[O-])cc(c23)C1=O [Compound 11, 2-[4-(Dimethylamino)butyl]-5-nitro-1H-benzo[de]isoquinoline-1,3(2H)-dione]
- fluorescent output at Ex/Em 485/535 detecting nfsB and CYPOR enzyme activities [1]: gave fluorescent output
